Experimental data taken from the supplement of paper PMC10627819.

How the values were obtained:
Assay in all cases: fitness (endpoint OD595 vs no drug) (fraction); higher = more growth
S. aureus Newman = test system: S. aureus Newman
Method in brief: (§1)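 Bacterial fitness was scored as optical density at the stationary-phase transition relative to the robust mean of no-drug control wells. Scores are capped at 1. The growth data were OD595 readings every 30 min for 14 h at 37 °C, background-subtracted against the first reading, from 384-well plates inoculated at OD595 0.01 in TSB, LB Lennox or CY.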

B. subtilis 168 = test system: B. subtilis 168
Method in brief: as §1

S. pneumoniae D39V = test system: S. pneumoniae D39V
Method in brief: as §1
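Note: OD595 on entry to stationary phase over no-drug wells; at most 1.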

O=C(O)c1cn(C2CC2)c2cc(N3CCNCC3)c(F)cc2c1=O [Ciprofloxacin] + CC1(C)S[C@@H]2[C@H](NC(=O)Cc3ccccc3)C(=O)N2[C@H]1C(=O)O [Penicillin G]
fitness, S. aureus Newman
Details | first compound 0.0375 µg/mL | first compound 0.075 µg/mL | first compound 0.15 µg/mL
partner 0.0195 µg/mL | 0.66 | 0.582 | 0.0269
partner 0.039 µg/mL | 0.679 | 0.593 | 0.0263
partner 0.078 µg/mL | 0.688 | 0.593 | 0.024

CC1(C)S[C@@H]2[C@H](NC(=O)Cc3ccccc3)C(=O)N2[C@H]1C(=O)O [Penicillin G] + CN1C2=CC=CC=C2N=C3C1=CC=CC3=O [Pyocyanin]
fitness, S. aureus Newman
Details | first compound 0.0195 µg/mL | first compound 0.039 µg/mL | first compound 0.078 µg/mL
partner 1.25 µg/mL | 0.807 | 0.831 | 0.801
partner 2.5 µg/mL | 0.783 | 0.744 | 0.707
partner 5 µg/mL | 0.434 | 0.334 | 0.302

CC1(C)S[C@@H]2[C@H](NC(=O)Cc3ccccc3)C(=O)N2[C@H]1C(=O)O [Penicillin G] + CCN(CC)CCOC(=O)c1ccc(N)cc1 [Procaine]
fitness, S. aureus Newman
Details | first compound 0.0195 µg/mL | first compound 0.039 µg/mL | first compound 0.078 µg/mL
partner 85.5 µg/mL | 0.899 | 0.943 | 0.947
partner 171 µg/mL | 0.876 | 0.925 | 0.977
partner 342 µg/mL | 0.876 | 0.914 | 0.952

CC1(C)S[C@@H]2[C@H](NC(=O)Cc3ccccc3)C(=O)N2[C@H]1C(=O)O [Penicillin G] + C[n+]1ccc(-c2cc[n+](C)cc2)cc1 [Paraquat]
fitness, S. aureus Newman
Details | first compound 0.0195 µg/mL | first compound 0.039 µg/mL | first compound 0.078 µg/mL
partner 1.25 µg/mL | 0.827 | 0.832 | 0.876
partner 2.5 µg/mL | 0.863 | 0.871 | 0.827
partner 5 µg/mL | 0.875 | 0.807 | 0.819

CN(C)[C@@H]1C(O)=C(C(N)=O)C(=O)[C@@]2(O)C(O)=C3C(=O)c4c(O)ccc(Cl)c4[C@@](C)(O)[C@H]3C[C@@H]12 [Chlortetracycline] + CC1=C(C(=O)O)N2C(=O)[C@@H](NC(=O)[C@H](N)c3ccccc3)[C@H]2SC1 [Cephalexin]
fitness
Details | first compound 0.0475 µg/mL | first compound 0.095 µg/mL | first compound 0.19 µg/mL | first compound 0.375 µg/mL | first compound 0.75 µg/mL | first compound 1.5 µg/mL
B. subtilis 168, partner 0.125 µg/mL | 0.922 | 0.708 | 0.437 | – | – | –
B. subtilis 168, partner 0.25 µg/mL | 0.918 | 0.818 | 0.534 | – | – | –
B. subtilis 168, partner 0.5 µg/mL | 0.852 | 0.811 | 0.551 | – | – | –
S. pneumoniae D39V, partner 1 µg/mL | – | – | – | 0.0846 | 0.0412 | 0.0388
S. pneumoniae D39V, partner 2 µg/mL | – | – | – | 0.0341 | 0.0584 | 0.0428
S. pneumoniae D39V, partner 4 µg/mL | – | – | – | 0.0429 | 0.0665 | 0.0379

fitness, one replicate
Details | first compound 0.012 µg/mL | first compound 0.024 µg/mL | first compound 0.0475 µg/mL | first compound 0.048 µg/mL | first compound 0.095 µg/mL | first compound 0.19 µg/mL
B. subtilis 168, partner 1 µg/mL | – | – | 0.936 | – | 0.827 | 0.606
S. pneumoniae D39V, partner 0.125 µg/mL | 0.933 | 0.86 | – | 0.797 | – | –
S. pneumoniae D39V, partner 0.25 µg/mL | 0.872 | 0.809 | – | 0.762 | – | –
S. pneumoniae D39V, partner 0.5 µg/mL | 0.883 | 0.84 | – | 0.706 | – | –

CO/N=C(\C(=O)N[C@@H]1C(=O)N2C(C(=O)O)=C(COC(N)=O)CS[C@H]12)c1ccco1 [Cefuroxime] + CO/N=C(\C(=O)N[C@@H]1C(=O)N2C(C(=O)[O-])=C(C[N+]3(C)CCCC3)CS[C@H]12)c1csc(N)n1 [Cefepime]
fitness, S. aureus Newman, one replicate
Details | first compound 0.04875 µg/mL | first compound 0.0975 µg/mL | first compound 0.195 µg/mL
partner 0.125 µg/mL | 0.984 | 0.841 | 0.925
partner 0.25 µg/mL | 0.871 | 0.821 | 0.922
partner 0.5 µg/mL | 0.88 | 0.731 | 0.864

CC1(C)S[C@@H]2[C@H](NC(=O)Cc3ccccc3)C(=O)N2[C@H]1C(=O)O [Penicillin G] + CCCCCCCCCC(=O)N[C@@H]1[C@H]([C@@H]([C@H](O[C@H]1OC2=C3C=C4C=C2OC5=C(C=C(C=C5)[C@H]([C@H]6C(=O)N[C@@H](C7=C(C(=CC(=C7)O)OC8[C@H]([C@H]([C@@H]([C@H](O8)CO)O)O)O)C9=C(C=CC(=C9)[C@H](C(=O)N6)NC(=O)[C@@H]4NC(=O)[C@@H]1C2=CC(=CC(=C2)OC2=C(C=CC(=C2)[C@H](C(=O)N[C@H](CC2=CC(=C(O3)C=C2)Cl)C(=O)N1)N)O)O)O)C(=O)O)O[C@H]1[C@@H]([C@H]([C@@H]([C@H](O1)CO)O)O)NC(=O)C)Cl)CO)O)O [Teicoplanin]
fitness, S. aureus Newman, main component drawn
Details | first compound 0.0195 µg/mL | first compound 0.039 µg/mL | first compound 0.078 µg/mL
partner 0.1562 µg/mL | 0.983 | ≥ 1 | ≥ 1
partner 0.3125 µg/mL | 0.955 | 0.924 | 0.921
partner 0.625 µg/mL | 0.803 | 0.824 | 0.776

fitness, S. aureus Newman, one replicate, main component drawn
Details | first compound 0.0195 µg/mL | first compound 0.039 µg/mL | first compound 0.078 µg/mL
partner 0.62 µg/mL | 0.697 | 0.741 | 0.715
partner 1.24 µg/mL | 0.702 | 0.732 | 0.711
partner 2.48 µg/mL | 0.377 | 0.393 | 0.284

C[C@H]1c2cccc(O)c2C(=O)C2=C(O)[C@]3(O)C(=O)C(C(N)=O)=C(O)[C@@H](N(C)C)[C@@H]3[C@@H](O)[C@@H]21 [Doxycycline] + COc1cccc2c1C(=O)c1c(O)c3c(c(O)c1C2=O)C[C@@](O)(C(=O)CO)C[C@@H]3O[C@H]1C[C@H](N)[C@H](O)[C@H](C)O1 [Doxorubicin]
fitness
Details | partner 0.25 µg/mL | partner 0.5 µg/mL | partner 0.625 µg/mL | partner 1 µg/mL | partner 1.25 µg/mL | partner 2.5 µg/mL
B. subtilis 168, first compound 0.02 µg/mL | – | – | 0.915 | – | 0.854 | 0.695
B. subtilis 168, first compound 0.04 µg/mL | – | – | 0.722 | – | 0.712 | 0.58
S. pneumoniae D39V, first compound 0.0155 µg/mL | 0.833 | 0.826 | – | 0.814 | – | –

fitness, S. pneumoniae D39V, one replicate
Details | partner 0.25 µg/mL | partner 0.5 µg/mL | partner 1 µg/mL
first compound 0.003875 µg/mL | 0.916 | 0.914 | 0.887
first compound 0.00775 µg/mL | 0.885 | 0.891 | 0.848
